Experimental data published in US3989837A, “Pharmaceutical compositions” (Chinoin Gyogyszer-es Vegyeszeti Termekek Gyara RT, priority 1972, dated 1976).
Several values for one entry are separate records, joined by “and”; a condition that tells them apart may be missing. Identical values can stand only once.

What was measured:
kaolin oedema = assay: Kaolin oedema test (Table 1); assay type: in vivo, rat; parameters: oedema, treated: unit not given here; conditions: female rats
Description: The experiments were performed on female rats weighing 110-130 g. divided into groups of 10 animals. The rats were starved for 24 hours prior to the experiment. The test substance was administered orally, the controls obtained the suspending solution without the active ingredient. 1 hour following drug administration the animals were injected s.c. 0.1 ml. of a suspension of 5% kaolin into the foot pad. During the following period the inflammatory reaction is manifested by a swelling of the foot. The diameter of the foot of the treated and control animals was measured 2, 3.5 and 5 hours after s.c. injection of kaolin. The efficiency of the test compound was calculated from the difference of the diameter of the foot in the treated and control animals. Significance was calculated with Student's t test and the effect of the drug was expressed also as per cent.

granuloma formation = assay: Cotton pellet granuloma (Table 2); assay type: in vivo, rat; conditions: male rats, 7 days
Description: The experiments were performed on male rats weighing 140-160 g. In ether anaesthesia a […]. cotton pellet was placed in each of two subcutaneous pockets in the dorsal region of the animal. The drug was administered orally during a period of 7 days. The controls received a drugfree suspension. The doses seen in the Table were administered in two portions, in the morning and in the afternoon, respectively. On the 8th day the animals were killed and the pellets were dissected. After removal of fat and extraneous tissue, the pellets were dried for 5 hours at 50° C and weighed. The weight of the cotton pellet before implantation was subtracted from the weight of the dried, dissected pellet and drug efficiency was calculated from the obtained difference. Significance was calculated with Student's t test and drug effect was expressed as per cent.

writhing = assay: Analgesic effect, acetic acid writhing (Table 3); assay type: in vivo, mouse; conditions: male mice
Description: Male mice weighing 15-18 g. and starved for 16 hours were used for the experiments. The drug was given orally, the control mice obtained a drug-free suspension. After 2 and 4 hours (2^h and 4^h respectively) the animals were injected with […], acetic acid solution (0.1 ml. per mouse) intraperitoneally. Upon the effect of the injection the animals reacted in a few minutes with writhing. […] Comparison of the number of writhes in the control and the treated animals served as a basis of evaluation of drug effect. Significance was calculated by Student's t test, and efficiency of the drug was expressed as per cent. Each experiment was performed on a group of 12-16 animals.

mice = assay: Toxicity on mice by oral administration, once daily for 7 days (Table 4); assay type: in vivo; conditions: male mice
Description: The experiments were performed on unstarved male mice of […]. body-weight.
The compound was administered in the form of 1% suspension stabilized with methylcellulose. […] The animals obtained the drug once daily over a period of 7 dyas, i.e. 168 hours. The number of deaths was registered each day. LD50 values were calculated according to Litchfield and Wilcoxon.

rats = assay: Toxicity on rats after oral administration, 3 months (Table 2'); assay type: in vivo, rat; conditions: for Perished animals/total animals, Sum / Perished animals/total animals: male rats
Description: 10 animals were treated with the substance in question for 3 months. […] A dosage corresponding to 20 mg./kg. of Indomethacine was added during the first, that corresponding to 40 mg./kg. of Indomethacine during the second, and that corresponding to 60 mg./kg. of Indomethacine during the third month. The animals of the control group received suspending agent only.

[1] = oral 13.7 mg./kg., 2 h after kaolin
[2] = oral 13.7 mg./kg., 3.5 h after kaolin
[3] = oral 13.7 mg./kg., 5 h after kaolin
[4] = oral 34 mg./kg., 2 h after kaolin
[5] = oral 34 mg./kg., 3.5 h after kaolin
[6] = oral 34 mg./kg., 5 h after kaolin
[7] = oral 51 mg./kg., 2 h after kaolin
[8] = oral 51 mg./kg., 3.5 h after kaolin
[9] = oral 51 mg./kg., 5 h after kaolin

In the case of `COc1ccc2c(c1)c(CC(=O)OCC(Cl)(Cl)Cl)c(C)n2C(=O)c1ccc(Cl)cc1` [Example 5, 1-(p-chlorobenzoyl)-2-methyl-5-methoxy-indol-3-yl-acetic-acid trichloroethyl ester], the “Inhibition of kaolin oedema” value (kaolin oedema; [1]) is reported as 9.8% and 10.6%, the “oedema, treated” value (kaolin oedema; [1]) is reported as 2.39±0.36 and 2.28±0.50 and the “Inhibition of kaolin oedema” value (kaolin oedema; [2]) is reported as 15.1% and 19.0%. For the same compound, the “oedema, treated” value (kaolin oedema; [2]) was 2.54±0.53 and 2.35±0.54, the “Inhibition of kaolin oedema” value (kaolin oedema; [3]) was 22.2% and 15.1% and the “oedema, treated” value (kaolin oedema; [3]) was 2.56±0.53 and 2.77±0.58. For the same compound, the “Inhibition of kaolin oedema” value (kaolin oedema; [4]) was 11.0% and 13.6%, the “oedema, treated” value (kaolin oedema; [4]) was 2.27±0.30 and 2.46±0.49 and the “Inhibition of kaolin oedema” value (kaolin oedema; [5]) was 22.1%. For the same compound, the “oedema, treated” value (kaolin oedema; [5]) was 2.26±0.30 and 2.47±0.41, the “Inhibition of kaolin oedema” value (kaolin oedema; [6]) was 24.7% and 29.9% and the “oedema, treated” value (kaolin oedema; [6]) was 2.48±0.36 and 2.72±0.62. For the same compound, the “Inhibition of kaolin oedema” value (kaolin oedema; [7]) was 19.5%, the “oedema, treated” value (kaolin oedema; [7]) was 1.86±0.32 and the “Inhibition of kaolin oedema” value (kaolin oedema; [8]) was 24.6%. The “oedema, treated” value (kaolin oedema; [8]) was 2.05±0.30, the “Inhibition of kaolin oedema” value (kaolin oedema; [9]) was 26.4% and the “oedema, treated” value (kaolin oedema; [9]) was 2.23±0.28. The “Inhibition of granuloma formation” value (granuloma formation; oral 5.5 mg./kg.) was 19.5%, the “granuloma tissue, treated” value (granuloma formation; oral 5.5 mg./kg.) was 56.7±11.1 and the “Inhibition of granuloma formation” value (granuloma formation; oral 11 mg./kg.) was 24.8%. The “granuloma tissue, treated” value (granuloma formation; oral 11 mg./kg.) was 52.0±17.8, the Analgesic effect (writhing; oral 5 mg./kg., 2 h) was 29.0% and 20.7% and the “number of writhes, treated” value (writhing; oral 5 mg./kg., 2 h) was 28.0±9.5 and 41.1±12.2. For the same compound, the Analgesic effect (writhing; oral 5 mg./kg., 4 h) was 18.6% and 20.1%, the “number of writhes, treated” value (writhing; oral 5 mg./kg., 4 h) was 32.1±12.4 and 41.4±12.6 and the Analgesic effect (writhing; oral 17 mg./kg., 2 h) was 60.8% and 51.4%. For the same compound, the Analgesic effect (writhing; oral 17 mg./kg., 4 h) was 56.7% and 51.0%, the “number of writhes, treated” value (writhing; oral 17 mg./kg., 4 h) was 13.7±10.7 and 20.6±12.3 and the “Number of deaths/number of treated animals” value (mice; oral 1000 mg/kg, 24 h) was 0/10. For the same compound, the “Number of deaths/number of treated animals” value (mice; oral 1000 mg/kg, 48 h) was 0/10, the “Number of deaths/number of treated animals” value (mice; oral 1000 mg/kg, 72 h) was 0/10 and the “Number of deaths/number of treated animals” value (mice; oral 1000 mg/kg, 96 h) was 0/10. For the same compound, the “Number of deaths/number of treated animals” value (mice; oral 1000 mg/kg, 120 h) was 0/10, the “Number of deaths/number of treated animals” value (mice; oral 1000 mg/kg, 144 h) was 0/10 and the “Number of deaths/number of treated animals” value (mice; oral 1000 mg/kg, 168 h) was 0/10. For the same compound, the “Number of deaths/number of treated animals” value (mice; oral 1500 mg/kg, 24 h) was 0/10, the “Number of deaths/number of treated animals” value (mice; oral 1500 mg/kg, 48 h) was 0/10 and the “Number of deaths/number of treated animals” value (mice; oral 1500 mg/kg, 72 h) was 0/10. For the same compound, the “Number of deaths/number of treated animals” value (mice; oral 1500 mg/kg, 96 h) was 0/10, the “Number of deaths/number of treated animals” value (mice; oral 1500 mg/kg, 120 h) was 0/10 and the “Number of deaths/number of treated animals” value (mice; oral 1500 mg/kg, 144 h) was 0/10. For the same compound, the “Number of deaths/number of treated animals” value (mice; oral 1500 mg/kg, 168 h) was 0/10, the “Number of deaths/number of treated animals” value (mice; oral 2000 mg/kg, 24 h) was 0/10 and the “Number of deaths/number of treated animals” value (mice; oral 2000 mg/kg, 48 h) was 0/10. For the same compound, the “Number of deaths/number of treated animals” value (mice; oral 2000 mg/kg, 72 h) was 2/10, the “Number of deaths/number of treated animals” value (mice; oral 2000 mg/kg, 96 h) was 2/10 and the “Number of deaths/number of treated animals” value (mice; oral 2000 mg/kg, 120 h) was 4/10. For the same compound, the “Number of deaths/number of treated animals” value (mice; oral 2000 mg/kg, 144 h) was 6/10, the “Number of deaths/number of treated animals” value (mice; oral 2000 mg/kg, 168 h) was 6/10 and the “Number of deaths/number of treated animals” value (mice; oral 2500 mg/kg, 24 h) was 0/10. For the same compound, the “Number of deaths/number of treated animals” value (mice; oral 2500 mg/kg, 48 h) was 1/10, the “Number of deaths/number of treated animals” value (mice; oral 2500 mg/kg, 72 h) was 1/10 and the “Number of deaths/number of treated animals” value (mice; oral 2500 mg/kg, 96 h) was 3/10. For the same compound, the “Number of deaths/number of treated animals” value (mice; oral 2500 mg/kg, 120 h) was 4/10, the “Number of deaths/number of treated animals” value (mice; oral 2500 mg/kg, 144 h) was 6/10 and the “Number of deaths/number of treated animals” value (mice; oral 2500 mg/kg, 168 h) was 7/10. The “Number of deaths/number of treated animals” value (mice; oral 3000 mg/kg, 24 h) was 0/10, the “Number of deaths/number of treated animals” value (mice; oral 3000 mg/kg, 48 h) was 1/10 and the “Number of deaths/number of treated animals” value (mice; oral 3000 mg/kg, 72 h) was 3/10. The “Number of deaths/number of treated animals” value (mice; oral 3000 mg/kg, 96 h) was 4/10, the “Number of deaths/number of treated animals” value (mice; oral 3000 mg/kg, 120 h) was 5/10 and the “Number of deaths/number of treated animals” value (mice; oral 3000 mg/kg, 144 h) was 7/10. The “Number of deaths/number of treated animals” value (mice; oral 3000 mg/kg, 168 h) was 7/10, the “Perished animals/total animals, Sum” value (rats; oral 27.3 mg./kg., 1st month) was 1/10 and the Perished animals/total animals (rats; oral 54.7 mg./kg., 2nd month) was 1/9. The “Perished animals/total animals, Sum” value (rats; oral 54.7 mg./kg., through 2nd month) was 2/10, the Perished animals/total animals (rats; oral 80.0 mg./kg., 3rd month) was 2/8 and the “Perished animals/total animals, Sum” value (rats; oral 80.0 mg./kg., through 3rd month) was 4/10. For the same compound, the “toxicity compared with Indomethacine” value (rats; rats (and mice), oral) was “far less toxic than Indomethacine not only on mice but also on rats” and the “perishment during the observation period compared with Indomethacine” value (rats; rats, oral, observation period) was “the same as for Indomethacine”.
